Reference: ChEMBL document CHEMBL1201862, “PubChem BioAssay data set” (2004)
Activity calls are given as the source filed them.

Experiments:
[1] = target: T1, Corticotropin-releasing factor receptor 2/Corticotropin-releasing factor-binding protein (Homo sapiens, UniProt P24387+Q13324); assay: Dose Response confirmation of uHTS hits for small molecule antagonists of the CRF-binding protein and CRF-R2 receptor complex.; type: functional; details: read-out: IC50_Mean
T1 sequence (Q13324 whole entry): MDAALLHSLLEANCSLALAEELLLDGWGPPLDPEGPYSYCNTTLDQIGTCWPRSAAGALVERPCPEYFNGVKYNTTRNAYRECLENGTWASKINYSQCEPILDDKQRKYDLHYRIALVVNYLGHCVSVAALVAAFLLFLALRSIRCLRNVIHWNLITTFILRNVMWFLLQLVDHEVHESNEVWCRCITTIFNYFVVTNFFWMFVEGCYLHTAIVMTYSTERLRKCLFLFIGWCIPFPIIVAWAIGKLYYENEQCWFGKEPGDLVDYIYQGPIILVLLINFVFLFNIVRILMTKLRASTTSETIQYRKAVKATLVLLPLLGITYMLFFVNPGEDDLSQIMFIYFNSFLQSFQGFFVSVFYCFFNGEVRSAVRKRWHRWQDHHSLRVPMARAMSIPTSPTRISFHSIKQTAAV
T1 sequence (P24387 whole entry): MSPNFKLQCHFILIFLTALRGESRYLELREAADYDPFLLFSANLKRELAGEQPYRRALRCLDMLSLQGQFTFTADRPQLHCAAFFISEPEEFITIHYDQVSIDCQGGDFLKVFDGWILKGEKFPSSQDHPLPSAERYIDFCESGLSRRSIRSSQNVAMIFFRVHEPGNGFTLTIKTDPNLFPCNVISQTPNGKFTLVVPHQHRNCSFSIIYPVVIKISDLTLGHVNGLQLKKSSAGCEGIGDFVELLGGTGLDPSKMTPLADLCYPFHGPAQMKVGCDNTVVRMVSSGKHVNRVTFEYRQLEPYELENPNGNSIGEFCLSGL

[2] = target: FAD-linked sulfhydryl oxidase ALR (Homo sapiens, UniProt P55789); assay: ALR-catalysed DTT oxidation blockers – biochemical, H2O2 detection, luminescence, cherry-pick, dose response (AID 493248)
Sequence of FAD-linked sulfhydryl oxidase ALR (P55789 whole entry): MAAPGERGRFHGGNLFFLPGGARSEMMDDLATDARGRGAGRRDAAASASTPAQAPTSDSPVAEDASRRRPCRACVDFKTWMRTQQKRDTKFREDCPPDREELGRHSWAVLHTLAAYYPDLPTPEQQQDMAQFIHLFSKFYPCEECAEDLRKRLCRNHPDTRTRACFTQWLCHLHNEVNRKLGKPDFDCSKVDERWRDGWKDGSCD

[3] = target: T1, Corticotropin-releasing factor receptor 2/Corticotropin-releasing factor-binding protein; assay: activators of CRF receptor 2 with binding protein – uHTS hits, confirmation (AID 602473); type: functional; details: read-out: EC50_Mean
[4] = target: T2, Calpain-2 catalytic subunit (Sus scrofa, UniProt P43367); assay: m-calpain protease blockers, concentration series – biochemical, fluorogenic peptide substrate, dose response (AID 1420); type: functional
T2 sequence (P43367 whole entry): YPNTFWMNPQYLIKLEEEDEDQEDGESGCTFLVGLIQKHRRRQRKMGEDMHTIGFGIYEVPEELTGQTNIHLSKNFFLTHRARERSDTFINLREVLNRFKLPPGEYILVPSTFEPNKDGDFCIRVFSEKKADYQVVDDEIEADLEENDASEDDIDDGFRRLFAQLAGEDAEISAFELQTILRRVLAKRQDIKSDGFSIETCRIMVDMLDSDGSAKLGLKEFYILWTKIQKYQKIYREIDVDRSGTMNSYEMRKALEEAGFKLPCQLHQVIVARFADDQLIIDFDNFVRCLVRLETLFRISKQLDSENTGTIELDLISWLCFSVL

cells [5] = type: functional
Streptococcus = assay: GAS UMAA2166 growth inhibition – luminescence, BacTiterGlo, counter-screen for streptokinase expression inhibitor project, dose response (AID 1915); type: functional, organism-based;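 note: potency for reduction of bacterial viability or growth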
Streptokinase A = target: T3, Streptokinase A (Streptococcus pyogenes serotype M1, UniProt P10520); assay: viability-normalized secreted streptokinase activity reduction – plasminogen activation absorbance, OD405, dose response (AID 1914); type: functional, Streptococcus pyogenes M1 GAS;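 note: secreted streptokinase activity via plasminogen activation per viability signal from cell pellet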
T3 sequence (P10520 whole entry): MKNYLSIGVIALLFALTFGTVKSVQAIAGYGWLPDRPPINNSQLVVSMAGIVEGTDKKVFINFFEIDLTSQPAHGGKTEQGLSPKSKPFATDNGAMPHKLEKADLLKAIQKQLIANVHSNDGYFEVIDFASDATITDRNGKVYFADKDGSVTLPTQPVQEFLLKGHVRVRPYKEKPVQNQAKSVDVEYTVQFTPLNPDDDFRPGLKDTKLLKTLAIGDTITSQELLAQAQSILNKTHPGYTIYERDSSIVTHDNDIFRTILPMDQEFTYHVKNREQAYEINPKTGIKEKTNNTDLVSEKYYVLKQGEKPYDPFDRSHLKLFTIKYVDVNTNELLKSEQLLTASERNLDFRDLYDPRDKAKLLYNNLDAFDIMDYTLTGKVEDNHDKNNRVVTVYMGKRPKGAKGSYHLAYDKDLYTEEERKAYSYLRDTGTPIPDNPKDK

cells [6] = type: functional, cell-based
[7] = test system: Streptococcus sp. 'group A'; assay: Streptococcus pyogenes SK(-)GAS viability under kanamycin – luminescence, BacTiterGlo, confirmation, counter-screen for streptokinase expression inhibitor project, dose response (AID 1900); type: functional, organism-based
cells [8] = type: functional, cell-based; remark: listed apart in the source
[9] = target: T4, High affinity choline transporter 1 (Homo sapiens, UniProt Q9GZV3); assay: human choline transporter blockers, potency – cell-based, 5-point CRC, membrane potential dye, dose response (AID 504840); type: functional
T4 sequence (Q9GZV3 whole entry): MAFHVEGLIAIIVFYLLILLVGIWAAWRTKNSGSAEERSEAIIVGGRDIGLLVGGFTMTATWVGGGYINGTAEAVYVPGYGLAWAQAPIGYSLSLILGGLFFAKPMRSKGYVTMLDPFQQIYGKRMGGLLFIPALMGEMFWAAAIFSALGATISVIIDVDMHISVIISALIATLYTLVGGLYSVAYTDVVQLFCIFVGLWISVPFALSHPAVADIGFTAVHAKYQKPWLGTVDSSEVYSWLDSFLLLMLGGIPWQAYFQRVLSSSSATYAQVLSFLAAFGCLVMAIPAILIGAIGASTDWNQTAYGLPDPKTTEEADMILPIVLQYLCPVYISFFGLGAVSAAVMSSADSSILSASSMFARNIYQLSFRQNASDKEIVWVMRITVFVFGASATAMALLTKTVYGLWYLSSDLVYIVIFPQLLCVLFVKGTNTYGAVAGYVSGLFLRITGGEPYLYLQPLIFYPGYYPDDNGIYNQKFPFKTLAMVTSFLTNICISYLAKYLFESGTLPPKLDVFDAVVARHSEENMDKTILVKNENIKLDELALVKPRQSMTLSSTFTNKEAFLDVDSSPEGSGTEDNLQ

[10] = NIH-3T3 fibroblast cytotoxicity, dose response, cytotoxicity control, cell-based, fluorescence, Alamar Blue, secondary assay (AID 2327); type: functional;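 note: NIH-3T3 mouse fibroblasts cultured with fluconazole at 8 µg/mL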
[11] = fluconazole-exposed Candida albicans growth modulators – fluorescence, retest, confirmation (AID 2467); type: functional, cell-based
[12] = NIH3T3 cell viability loss – ATP luminescence, mouse fibroblasts, counter-screen, dose response (AID 2010); type: functional, cell-based;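 note: cells exposed to compound for about 90 hours before reading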
[13] = Trypanosoma cruzi growth suppression in host cells – NIH3T3 host cells, beta-gal luminescence, confirmation (AID 2044); type: functional, cell-based;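 note: intracellular parasites grown in NIH/3T3 mouse fibroblasts as host cells; luminescent beta-galactosidase reporter signal from transgenic T. cruzi replicating inside host cells; inhibitors lower the luminescence signal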

With `CCCS(=O)(=O)N1CCCC(C(=O)NCCCN(CC)c2cccc(C)c2)C1` (configuration not stated) the IC50 [1] was > 47.1 µM (inactive), the AC50 [2] was 1.48 µM (active) and the EC50 [3] was > 53 µM (inactive).

For `Cc1cc(NC(=S)N(Cc2cccc(Br)c2)CC2CCC(C(=O)O)CC2)ccc1Cl` (configuration not stated), the IC50 [4] was 11.3 µM (not active).

For `CCOC(=O)CCCNC(=O)COC(=O)c1cc(Br)c(Br)s1`, the IC50 (cells [5]) was 13.2 µM (active).

For `O=C(NCCS(=O)(=O)N1CCN(c2ccccc2F)CC1)C1CC(=O)N(c2ccc(F)cc2)C1` (configuration not stated), the EC50 (Streptococcus) was > 150 µM (not active), the EC50 (Streptokinase A) was > 150 µM (not active) and the EC50 (cells [6]) was > 350 µM (not active). The EC50 [7] was > 150 µM (not active) and the EC50 (cells [8]) was > 350 µM (not active).

With `CC(C)(C)c1ccc(-c2nc3cc(N)ccc3o2)cc1` the AC50 [2] was 0.751 µM (active).

With `CC(C)C[C@H](NC(=O)c1[nH]cnc1C(=O)NCc1ccccc1)C(=O)OC(C)(C)C` the IC50 [4] was 10.8 µM (not active).

In the case of `CCC(NC(=O)CCc1nnc(-c2cc(C)on2)o1)C12CC3CC(CC(C3)C1)C2` (configuration not stated), the IC50 [9] is reported as 14.5 µM (active).

With `C=CC[C@@H]1C=C(C)C[C@H](C)C[C@H](OC)[C@H]2O[C@@](O)(C(=O)C(=O)N3CCCC[C@H]3C(=O)O[C@H](/C(C)=C/[C@@H]3CC[C@@H](O)[C@H](OC)C3)[C@H](C)[C@@H](O)CC1=O)[C@H](C)C[C@@H]2OC` the EC50 [10] was > 160 µM (inactive) and the EC50 [11] was 0.035 µM (active).

In the case of `O=C(O/N=C1\CCS(=O)(=O)c2sccc21)c1ccc(F)cc1`, the IC50 [4] is reported as < 0.4 µM (not active).

With `CCN1CCn2c3c(c4cccc(C)c42)CCCC31` (configuration not stated) the IC50 [9] was 14.5 µM (active).

In the case of `CC(C)Cn1c(N)c(C(=O)COC(=O)c2cccc(Cl)c2)c(=O)n(C)c1=O`, the IC50 [4] is reported as 6.14 µM (active).

In the case of `COc1ccc(-[n+]2c(-c3ccc(Br)cc3)cn3c2SC(C)C3)cc1` (configuration not stated), the EC50 [12] is reported as > 30 µM (not active), the EC50 [10] is reported as > 160 µM (inactive) and the EC50 [11] is reported as 2.96 µM (active). For the same compound, the EC50 [13] was 0.684 µM (active).

In the case of `CCCCN(CCCC)C(=O)/C=C/c1cccc([N+](=O)[O-])c1`, the IC50 [4] is reported as 19.4 µM (not active).

With `O=C(O)c1cccc(S(=O)(=O)Nc2ccc(N3CCCCC3)cc2)c1` the AC50 [2] was 1.75 µM (active).

With `CN(CCC#N)c1ncnc2scc(-c3ccccc3)c12` the IC50 [9] was 12.3 µM (active).

For `Cc1noc(C)c1C(=O)N1CCCC(Nc2ccc(C(C)C)cc2)C1` (configuration not stated), the AC50 [2] was 7.67 µM (active).

With `Cc1ccc(C)c(OC(=O)c2cncc(Br)c2)c1` the EC50 [10] was > 160 µM (inactive).
